Laboratory results published in patent US9730915B2 (OBSCHESTVO S OGRANICHENNOI OTVETSTVENNOSTIYU …, priority 2013, dated 2017).
Values joined by “and” are separate entries in the source; they are usually repeats but may differ in a detail not shown here. Equal values may be shown once.

What was measured:
[1] = tested on: herpes simplex virus HSV-1/CL; test: Murine model of herpes meningoencephalitis, HSV-1/CL; type: in vivo; conditions: mice
Protocol: (§1) Mice were intracerebrally infected with herpes simplex virus HSV-1/CL and HSV-2/VN in a dose of 30 μl comprising 10 LD50.
(§2) A therapeutic effect of glutaryl histamine was studied by once-daily oral administration of 200 μl of the drug to the infected mice at a dose of 30 mg/kg 24, 48, 72, 96, and 120 hours after infection with the virus. Mice of the control group were administered placebo under the same conditions ([…] of a physiological solution). The animals were monitored for 14 days after infection, and fatal cases among mice from herpes meningocephalitis were registered in the treated and control groups. Activity of the drug was evaluated by comparing mortality rates of animals treated with glutaryl histamine relative to animals of the control group. A reduction in the mortality rate of the treated animals relative to the control was expressed in percentage.

IFNAR1 mRNA = test: mRNA synthesis of interferon receptor subunit IFNAR1, Real Time PCR in A-549 cells; type: cell-based; conditions: 100 ng/mL, 16 hours after the treatment (FIG. 1)
Protocol: (§3) A continuous cell line A-549 was treated with glutaryl histamine at a concentration of 100 ng/mL. […] The RNAs were isolated by using RNEASY® Kit (Qiagen). The RNA preparation was treated with DNAase (RNase-free DNaseI (Ambion). Reverse transcription was performed by using THERMOSCRIPT™ RT-PCR System (Invitrogen). Quantitative PCR was carried out with the primers: […]

[2] = tested on: herpes simplex virus HSV-2/VN; test: Murine model of herpes meningoencephalitis, HSV-2/VN; type: in vivo; conditions: mice
Protocol: as §1, §2

IFNAR2 mRNA = test: mRNA synthesis of interferon receptor subunit IFNAR2, Real Time PCR in A-549 cells; type: cell-based; conditions: 100 ng/mL, 16 hours after the treatment (FIG. 1)
Protocol: as §3

IFNAR2 = test: Density of interferon receptor subunit IFNAR2 on the surface of primary human macrophages (antibody staining, optical density); type: cell-based; conditions: primary human macrophages, 0.1, 1.0, 10 or 100 ng/mL, 24 hours (FIG. 2)
Protocol: (§4) A 10-day primary culture of human macrophages in 96-well plates was incubated for 24 hours in the presence of glutaryl histamine at concentrations: 0.1, 1.0, 10 or 100 ng/mL or without it. […] The preparation was visualized by staining with horseradish peroxidase-labeled secondary antibodies and adding a substrate. Optical density was measured using an ELISA spectrophotometer.

IFNAR1 = test: Density of interferon receptor subunit IFNAR1 on the surface of primary human macrophages (antibody staining, optical density); type: cell-based; conditions: primary human macrophages, 0.1, 1.0, 10 or 100 ng/mL, 24 hours (FIG. 2)
Protocol: as §4

[3] = Toxic reactions and side effects on administration
protein MxA = test: Cell sensitivity to interferon: MxA protein immunoblot in A-549 cells; type: cell-based; conditions: for synthesis of MxA protein: glutaryl histamine 100 ng/mL plus 1 IU interferon-alpha
Source text: Cell lysates were undergone to the procedure of immunoblot analysis (western blotting) by using monoclonal antibodies against to protein MxA (sc-50509, Santa Cruz Biotechnology) to stain membranes by a chemiluminescence method using a substrate (chemiluminescent reagent SUPER SIGNAL® West Femto Chemiluminescent Substrate (Thermo Fisher Scientific)).

SMILES: O=C(O)CCCC(=O)NCCc1c[nH]cn1 [glutaryl histamine]
- Mortality rate, % ([1]; HSV-1 strain CL intracerebral 10 LD50, oral once daily 24-120 h after infection, 14 days monitoring, control 95.0): 65%
- Life expectancy, days M ± σ ([1]; HSV-1 strain CL, 14 days monitoring, control 4.8 ± 3.1): 8.1 days and 8.1 ± 4.9 days
- Protection index, % ([1]; HSV-1 strain CL, reduction in mortality relative to control): 31.6%
- increase in the mRNA synthesis of subunit IFNAR1 (IFNAR1 mRNA): at least in a two-folded increase
- Life expectancy, days M ± σ ([2]; HSV-2, 14 days monitoring, control 6.1 ± 4.3): 10.2 days and 10.2 ± 4.8 days
- Protection index, % ([2]; HSV-2, reduction in mortality relative to control): 47.1%
- Mortality rate, % ([2]; HSV-2 intracerebral 10 LD50, oral once daily 24-120 h after infection, 14 days monitoring, control 85.0): 45%
- increase in the amount of the mRNA of subunit IFNAR2 (IFNAR2 mRNA): three-fold increase
- density of IFNAR2 on the cell surface (signal in antibody staining) (IFNAR2): noticeably increased level of the signal
- density of IFNAR1 on the cell surface (signal in antibody staining) (IFNAR1): noticeably increased level of the signal
- toxic reactions and other side effects ([3]; accompanying the therapeutic effect): not accompanied by toxic reactions and other side effects
- adverse side effects ([3]; long-term administration in therapeutic doses or doses greater by an order of magnitude): has not demonstrated adverse side effects
- synthesis of MxA protein (protein MxA; 8 hours (line 5, FIG. 3)): increased synthesis
- synthesis of MxA protein (protein MxA; 24 hours (line 6, FIG. 3)): increased synthesis
- accumulation of MxA protein (protein MxA; glutaryl histamine 100 ng/mL, not treated with interferon (lines 1, 2, 3, FIG. 3)): did not cause the accumulation
